Measurements published in ChEMBL document CHEMBL1201862, “PubChem BioAssay data set” (2004).
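Exposure lasted 48 hours, with cells grown in 96-well plates and compounds tested at five concentrations. GI50: concentration for 50% inhibition of growth.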 Active and inactive are the calls of the source. Cut-off read from the data, not from the text of the source: active = GI50 up to about 1.1 µM and inactive = higher.

What was measured:
Test in all cases: inhibition of tumour cell growth, NCI panel, 48 h
[1] = system: 786-0
[2] = system: A549
[3] = system: HCT-15
[4] = system: IGROV-1
[5] = system: LOX IMVI
[6] = system: MOLT-4
[7] = system: Malme-3M
[8] = system: NCI-H23
[9] = system: NCI/ADR-RES
[10] = system: RPMI-8226
[11] = system: SF-268
[12] = system: SK-OV-3
[13] = system: SN12C
[14] = system: SW-620
[15] = system: U-251
[16] = system: UO-31
[17] = system: HCC 2998
[18] = system: PC-3
[19] = system: UACC-62
[20] = system: Hs-578T

| Structure (SMILES) | GI50 [1] | GI50 [2] | GI50 [3] [µM] | GI50 [4] | GI50 [5] | GI50 [6] | GI50 [7] | GI50 [8] | GI50 [9] | GI50 [10] | GI50 [11] | GI50 [12] | GI50 [13] | GI50 [14] | GI50 [15] | GI50 [16] | GI50 [17] | GI50 [18] | GI50 [19] | GI50 [20] |
| --- | --- | --- | --- | --- | --- | --- | --- | --- | --- | --- | --- | --- | --- | --- | --- | --- | --- | --- | --- | --- |
| CC(C)[Si](OC1=C(C(=O)N(C)c2ccccc2Cl)CCC1)(C(C)C)C(C)C | 21.7 µM (inactive) | 15 µM (inactive) | 16.5 | 18.3 µM (inactive) | 19.2 µM (inactive) | 30.3 µM (inactive) | 19.1 µM (inactive) | 15.7 µM (inactive) | 16.2 µM (inactive) | 19.2 µM (inactive) | 18.5 µM (inactive) | 16.5 µM (inactive) | 16.7 µM (inactive) | 24 µM (inactive) | 16 µM (inactive) | 15.8 µM (inactive) | – | – | – | – |
| CC[C@]1(Cc2ccc(OC)c(OC)c2)C2CC(C(=O)OC)ON2O[C@H](OCc2ccccc2)[C@@H]1OC(C)=O (stereo not given in full) | > 100 µM (inactive) | > 100 µM (inactive) | > 100 | 42.4 µM (inactive) | > 100 µM (inactive) | > 100 µM (inactive) | > 100 µM (inactive) | > 100 µM (inactive) | > 100 µM (inactive) | 98.6 µM (inactive) | – | > 100 µM (inactive) | > 100 µM (inactive) | > 100 µM (inactive) | > 100 µM (inactive) | > 100 µM (inactive) | 39.2 µM (inactive) | > 100 µM (inactive) | > 100 µM (inactive) | – |
| C=Cc1nc2nnc(CCCCCCCCc3nnc4nc(C=C)[nH]n34)n2[nH]1 | 80.9 µM (inactive) | 51.8 µM (inactive) | > 100 | > 100 µM (inactive) | 93.5 µM (inactive) | 47.4 µM (inactive) | 58.7 µM (inactive) | 67.8 µM (inactive) | 63.1 µM (inactive) | – | > 100 µM (inactive) | > 100 µM (inactive) | > 100 µM (inactive) | > 100 µM (inactive) | 30.7 µM (inactive) | > 100 µM (inactive) | 75.3 µM (inactive) | > 100 µM (inactive) | – | – |
| Cc1ccc(/N=N/C(=O)NNc2ccc(C)cc2Br)c(Br)c1 | 18.4 µM (inactive) | 24.4 µM (inactive) | 20 | 20.8 µM (inactive) | 18 µM (inactive) | 10.4 µM (inactive) | 19.6 µM (inactive) | 24.5 µM (inactive) | – | 20 µM (inactive) | 25.8 µM (inactive) | – | 21.4 µM (inactive) | 32.7 µM (inactive) | 16.1 µM (inactive) | 16 µM (inactive) | 16.4 µM (inactive) | 11.9 µM (inactive) | 10.9 µM (inactive) | – |
| CCC(=O)OC1=C(c2ccccc2)Sc2ccc(Cl)cc2-n2cccc21 | > 10 µM (inactive) | > 10 µM (inactive) | 4.69 | > 10 µM (inactive) | 8.65 µM (inactive) | 7.71 µM (inactive) | > 10 µM (inactive) | 8.2 µM (inactive) | – | 4.45 µM (inactive) | > 10 µM (inactive) | > 10 µM (inactive) | 5.05 µM (inactive) | 7.67 µM (inactive) | – | – | > 10 µM (inactive) | > 10 µM (inactive) | 8.73 µM (inactive) | – |
| O=S(=O)(O)c1cccc2ccc(O)c(/N=N\c3ccc(S(=O)(=O)c4ccc(/N=N/c5c(O)ccc6cccc(S(=O)(=O)O)c56)cc4)cc3)c12 | > 100 µM (inactive) | > 100 µM (inactive) | > 100 | 81.5 µM (inactive) | – | > 100 µM (inactive) | > 100 µM (inactive) | > 100 µM (inactive) | > 100 µM (inactive) | > 100 µM (inactive) | > 100 µM (inactive) | > 100 µM (inactive) | > 100 µM (inactive) | > 100 µM (inactive) | > 100 µM (inactive) | 63.4 µM (inactive) | – | > 100 µM (inactive) | > 100 µM (inactive) | > 100 µM (inactive) |
| CC(=O)O[C@H]1CCN2C(=O)C=CC(OCc3ccccc3)C12 (stereo not given in full) | > 100 µM (inactive) | > 100 µM (inactive) | > 100 | > 100 µM (inactive) | > 100 µM (inactive) | > 100 µM (inactive) | > 100 µM (inactive) | > 100 µM (inactive) | – | > 100 µM (inactive) | > 100 µM (inactive) | > 100 µM (inactive) | > 100 µM (inactive) | > 100 µM (inactive) | > 100 µM (inactive) | > 100 µM (inactive) | > 100 µM (inactive) | – | > 100 µM (inactive) | – |
| CC(C)OC(=O)/C=C/C(=O)O/C=C/[N+](=O)[O-] | 29.2 µM (inactive) | 26.9 µM (inactive) | 35 | 31.6 µM (inactive) | 17.5 µM (inactive) | 15.9 µM (inactive) | 29.6 µM (inactive) | 26.7 µM (inactive) | 8.55 µM (inactive) | 15.5 µM (inactive) | 24.5 µM (inactive) | 66.8 µM (inactive) | – | 25.4 µM (inactive) | 21.7 µM (inactive) | 36.1 µM (inactive) | 20.5 µM (inactive) | 26.6 µM (inactive) | 21.3 µM (inactive) | – |
| Oc1ccc(O)c(-n2cccn2)c1 | 62.1 µM (inactive) | > 100 µM (inactive) | > 100 | > 100 µM (inactive) | 52.7 µM (inactive) | 21.9 µM (inactive) | > 100 µM (inactive) | > 100 µM (inactive) | – | 25.6 µM (inactive) | 85.9 µM (inactive) | > 100 µM (inactive) | 94.4 µM (inactive) | 29.3 µM (inactive) | > 100 µM (inactive) | 56.4 µM (inactive) | > 100 µM (inactive) | – | 50.4 µM (inactive) | – |
| CS(=O)(=O)CSCSSCS(C)(=O)=O | 20.1 µM (inactive) | > 100 µM (inactive) | 28 | 51.8 µM (inactive) | 13.6 µM (inactive) | 25.5 µM (inactive) | 38.7 µM (inactive) | 35.5 µM (inactive) | – | 20.4 µM (inactive) | 26.2 µM (inactive) | > 100 µM (inactive) | 29.2 µM (inactive) | 16.8 µM (inactive) | 37.1 µM (inactive) | 32.1 µM (inactive) | > 100 µM (inactive) | – | 20.7 µM (inactive) | – |
| Cc1cc2c(s1)C(N)CC2=O (stereo not given) | > 100 µM (inactive) | > 100 µM (inactive) | > 100 | > 100 µM (inactive) | – | > 100 µM (inactive) | > 100 µM (inactive) | – | > 100 µM (inactive) | > 100 µM (inactive) | > 100 µM (inactive) | > 100 µM (inactive) | > 100 µM (inactive) | > 100 µM (inactive) | > 100 µM (inactive) | > 100 µM (inactive) | > 100 µM (inactive) | > 100 µM (inactive) | > 100 µM (inactive) | – |
| CN(C(=O)C1=CCC2(CC1)OCCO2)c1ccccc1OS(=O)(=O)C(F)(F)F | 24.3 µM (inactive) | > 100 µM (inactive) | 59 | – | 59.7 µM (inactive) | > 100 µM (inactive) | – | > 100 µM (inactive) | 53.3 µM (inactive) | > 100 µM (inactive) | 8.26 µM (inactive) | > 100 µM (inactive) | > 100 µM (inactive) | > 100 µM (inactive) | > 100 µM (inactive) | > 100 µM (inactive) | > 100 µM (inactive) | > 100 µM (inactive) | > 100 µM (inactive) | – |
| CCc1cc(Cc2cc(CC)c(NC(=O)C3=CC(=O)CC(c4ccc(OC)cc4)O3)c(CC)c2Cl)c(Cl)c(CC)c1NC(=O)C1=CC(=O)CC(c2ccc(OC)cc2)O1 (stereo not given) | 18.4 µM (inactive) | 23.9 µM (inactive) | 25.6 | 22.4 µM (inactive) | 18.1 µM (inactive) | 31.8 µM (inactive) | 19.1 µM (inactive) | 17.1 µM (inactive) | – | 15.5 µM (inactive) | 25.9 µM (inactive) | 17 µM (inactive) | 22 µM (inactive) | 5.9 µM (inactive) | 12.9 µM (inactive) | 16.5 µM (inactive) | 16.7 µM (inactive) | – | 23.8 µM (inactive) | – |
| Cc1ccccc1NC(=O)C(=O)C(c1cnc2ccc([N+](=O)[O-])cc2n1)[N+](=O)[O-] (stereo not given) | > 100 µM (inactive) | > 100 µM (inactive) | > 100 | > 100 µM (inactive) | > 100 µM (inactive) | 66.1 µM (inactive) | > 100 µM (inactive) | > 100 µM (inactive) | – | 31.7 µM (inactive) | > 100 µM (inactive) | > 100 µM (inactive) | > 100 µM (inactive) | > 100 µM (inactive) | > 100 µM (inactive) | 54 µM (inactive) | > 100 µM (inactive) | – | 51.5 µM (inactive) | – |
| NC1(CCNC(=O)c2ccccc2)CCN(C(=O)c2ccccc2)CC1 | > 100 µM (inactive) | > 100 µM (inactive) | > 100 | > 100 µM (inactive) | – | > 100 µM (inactive) | 29.2 µM (inactive) | > 100 µM (inactive) | > 100 µM (inactive) | > 100 µM (inactive) | > 100 µM (inactive) | > 100 µM (inactive) | > 100 µM (inactive) | > 100 µM (inactive) | > 100 µM (inactive) | > 100 µM (inactive) | – | > 100 µM (inactive) | > 100 µM (inactive) | > 100 µM (inactive) |
| CC(=O)Oc1c(OC(C)C)c(C)c(O[Si](C(C)C)(C(C)C)C(C)C)c2[nH]c3ccccc3c12 | > 100 µM (inactive) | > 82.2 µM (inactive) | > 75.7 | > 100 µM (inactive) | > 100 µM (inactive) | 12 µM (inactive) | – | 33.6 µM (inactive) | > 100 µM (inactive) | 71.1 µM (inactive) | > 100 µM (inactive) | > 100 µM (inactive) | > 69 µM (inactive) | > 83.4 µM (inactive) | 99.5 µM (inactive) | > 100 µM (inactive) | – | 37.7 µM (inactive) | > 100 µM (inactive) | > 100 µM (inactive) |
